Data as given in article PMC7316994, “In Vitro Pharmacological Profile of a New Small Molecule Bradykinin B2 Receptor Antagonist” (Frontiers in Pharmacology, 2020).
“Also recorded” adds a separate entry of the source.

Columns and labels:
[1] = target: T1, endogenous human B2 receptor (Homo sapiens, UniProt P30411); experiment: human isolated umbilical vein contractility assay, BK-induced contraction
T1 construct: BK-induced contraction at endogenous human B2 receptor in the umbilical vein model; from tissue; host or cells: human umbilical vein rings (donor cords after elective caesarean section)
T1 sequence (P30411 1-391): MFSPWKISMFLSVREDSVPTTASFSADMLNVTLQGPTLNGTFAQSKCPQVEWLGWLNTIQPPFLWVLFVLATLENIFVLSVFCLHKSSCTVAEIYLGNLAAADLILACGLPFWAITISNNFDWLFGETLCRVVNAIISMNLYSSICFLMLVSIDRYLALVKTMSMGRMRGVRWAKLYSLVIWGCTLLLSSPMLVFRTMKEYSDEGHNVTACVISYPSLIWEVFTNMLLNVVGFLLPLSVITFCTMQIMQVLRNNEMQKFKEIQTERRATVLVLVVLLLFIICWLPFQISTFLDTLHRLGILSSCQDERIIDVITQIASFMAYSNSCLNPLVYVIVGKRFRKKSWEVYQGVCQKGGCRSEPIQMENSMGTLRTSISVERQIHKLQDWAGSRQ

prostanoid TP receptor = target: T2, prostanoid TP receptor (Homo sapiens, UniProt P21731); experiment: umbilical vein, U-46619-induced contraction; conditions: Compound 2 10 μM; Compound 3 1 μM
T2 construct: endogenous human prostanoid TP receptors in the umbilical vein model; from tissue; host or cells: human umbilical vein rings
Description: The local ethics committee (CHU de Québec-Université Laval) had approved the project (File no. 2017-3720). Umbilical cords were obtained following elective caesarean sections; all problematic deliveries are excluded. Informed consent was obtained from the mothers. The cords were transported from the maternity ward to the laboratory in sterile Hank's balanced salt solution containing penicillin and streptomycin. Segments of umbilical veins were dissected carefully from the cords and a metal rod was inserted in the lumen. Excess connective tissue was excised and rings (2–3 mm wide) were cut. Rings of umbilical veins were suspended in 5-mL organ chambers containing oxygenated (95% O2, 5% CO2) and warmed (37°C) Krebs' solution between a metal hook and a thread loop. This solution had the following composition: NaCl 117.5 mM, KCl 4.7 mM, KH2PO4 1.2 mM, MgSO4 1.18 mM, CaCI2 2.5 mM, NaHCO3 25.0 mM, and D-glucose 5.5 mM. A baseline of one gram-weight was applied to these preparations. Changes of tension were recorded by using isometric transducers (model 52-9545, Harvard Bioscience, South Natick MA). Eight tissue baths are operated in parallel.
For this purpose, contractile responses to serotonin, acting on the 5-HT2A receptor, and U-46619, acting at the prostanoid TP receptor, were measured ([Rogines-Velo et al., 2002]; [Daray et al., 2003]).

B2 receptor = target: T3, B2 receptor (Homo sapiens, UniProt P30411); experiment: reversibility of antagonism after washout, umbilical vein; conditions: for EC50: BK EC50 (nM)
T3 sequence (P30411 1-391): T1 sequence (P30411 1-391)

human myc-B2 receptor = target: T4, human myc-B2 receptor (Homo sapiens, UniProt P30411); experiment: c-Fos immunoblot, HEK 293a cells stably expressing myc-B2 receptor; format: cell-based; conditions: BK 10 nM
T4 construct: expressed in transfected cells
T4 sequence (P30411 1-391): T1 sequence (P30411 1-391)
Description: Supplementary Methods: Immunoblots for c-Fos signaling
The construction of myc-tagged B2 receptor expression vector containing the human receptor sequence has been recently reported, as well as the derivation of HEK293a cell lines that stably express the construction (Charest-Morin et al., 2015). Immunoblotting experiments, conducted as described (Koumbadinga et al., 2010), were used to study the effect of selected antagonists on BK-induced signaling. Briefly, HEK 293a cells stably expressing the human myc-B2 receptor were stimulated with BK agonists for 60 min at 37°C, with or without a pretreatment with the antagonist (applied 15 min before BK). Total cell extracts were immunoblotted to detect c-Fos expression using the K-25 rabbit polyclonal antibodies (Santa Cruz Biotechnology, Dallas, TX; dilution 1:50,000). In these experiments, β-actin was used as a loading control and was detected using the monoclonal anti-β-actin antibody, clone AC-15 (Sigma-Aldrich; dilution 1:50,000).

Adenosine A2A = target: T5, Adenosine A2A (Homo sapiens, UniProt P29274); experiment: radioligand binding (Table S2); conditions: [3H] CGS 21680, Human recombinant HEK-293 cells
T5 construct: host or cells: HEK-293 cells

[2] = target: Calcitonin gene related peptide CGRP (Homo sapiens, UniProt O60894+Q16602); experiment: radioligand binding (Table S2); conditions: [125I] hCGRPα, Human recombinant CHO cells
[3] = target: T6, Corticotropin-releasing hormone receptor CRF1 (Homo sapiens, UniProt P34998); experiment: radioligand binding (Table S2); conditions: [125I] Sauvagine, Human recombinant CHO cells
T6 construct: host or cells: CHO cells

Dopamine D3 = target: T7, Dopamine D3 (Homo sapiens, UniProt P35462); experiment: radioligand binding (Table S2); conditions: [3H] Methylspiperone, Human recombinant CHO cells
T7 construct: host or cells: CHO cells

Dopamine transporter = target: T8, Dopamine transporter (Homo sapiens, UniProt Q01959); experiment: radioligand binding (Table S2); conditions: [3H] BTCP, Human recombinant CHO cells
T8 construct: host or cells: CHO cells

Potassium channel KATP = experiment: radioligand binding (Table S2); conditions: [3H] Glibenclamide, Rat cerebral cortex
[4] = tested on: Potassium channel voltage gated KV channel; format: binding; conditions: [125I] α-dendrotoxin, Rat cerebral cortex
Serotonin 5-HT1B = target: T9, Serotonin 5-HT1B (Rattus norvegicus, UniProt P28564); experiment: radioligand binding (Table S2); conditions: [125I] CYP (+ 30 µM isoproterenol), Rat cerebral cortex
T9 construct: tissue Eurofins; host or cells: rat cerebral cortex

Somatostatin sst5 = Somatostatin sst5 (Homo sapiens, UniProt P35346); experiment: radioligand binding (Table S2); conditions: [125I] Tyr11-Somatostatin 14, Human recombinant Chem-1 cells
Vasopressin V1a = target: T10, Vasopressin V1a (Homo sapiens, UniProt P37288); experiment: radioligand binding (Table S2); conditions: [3H] AVP, Human recombinant CHO cells
T10 construct: host or cells: CHO cells

Acetylcholinesterase = target: T11, Acetylcholinesterase (Homo sapiens, UniProt P22303); experiment: enzyme assay (Table S2); format: biochemical; conditions: Acetylthiocholine (400 µM), Photometry
T11 construct: Eurofins (assay provider); host or cells: HEK-293 cells

[5] = tested on: Gamma-aminobutyric acid GABAA, muscimol, central; experiment: radioligand binding (Table S2); conditions: [3H] Muscimol, Wistar rat brain (minus cerebellum)

T6 sequence (P34998 24-415): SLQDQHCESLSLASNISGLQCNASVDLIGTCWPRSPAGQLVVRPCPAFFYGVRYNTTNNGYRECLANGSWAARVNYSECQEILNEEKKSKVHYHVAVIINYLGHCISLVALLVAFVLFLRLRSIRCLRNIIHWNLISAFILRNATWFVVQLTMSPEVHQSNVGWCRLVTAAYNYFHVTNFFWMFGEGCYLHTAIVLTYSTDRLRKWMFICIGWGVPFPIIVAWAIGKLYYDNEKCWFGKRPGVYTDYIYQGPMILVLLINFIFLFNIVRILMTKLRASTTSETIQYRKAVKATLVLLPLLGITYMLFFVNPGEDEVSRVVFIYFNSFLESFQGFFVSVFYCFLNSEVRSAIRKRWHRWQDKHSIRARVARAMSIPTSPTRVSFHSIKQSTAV
T2 sequence (P21731 whole entry): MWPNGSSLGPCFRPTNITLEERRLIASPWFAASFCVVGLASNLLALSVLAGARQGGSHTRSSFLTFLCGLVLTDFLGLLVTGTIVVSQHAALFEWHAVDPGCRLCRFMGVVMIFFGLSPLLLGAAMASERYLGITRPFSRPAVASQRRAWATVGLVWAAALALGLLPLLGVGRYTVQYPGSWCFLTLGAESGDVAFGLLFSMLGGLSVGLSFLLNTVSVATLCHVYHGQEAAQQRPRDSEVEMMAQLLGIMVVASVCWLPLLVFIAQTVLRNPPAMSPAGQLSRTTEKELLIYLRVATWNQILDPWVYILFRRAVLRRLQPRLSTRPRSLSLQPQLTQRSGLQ
T10 sequence (P37288 whole entry): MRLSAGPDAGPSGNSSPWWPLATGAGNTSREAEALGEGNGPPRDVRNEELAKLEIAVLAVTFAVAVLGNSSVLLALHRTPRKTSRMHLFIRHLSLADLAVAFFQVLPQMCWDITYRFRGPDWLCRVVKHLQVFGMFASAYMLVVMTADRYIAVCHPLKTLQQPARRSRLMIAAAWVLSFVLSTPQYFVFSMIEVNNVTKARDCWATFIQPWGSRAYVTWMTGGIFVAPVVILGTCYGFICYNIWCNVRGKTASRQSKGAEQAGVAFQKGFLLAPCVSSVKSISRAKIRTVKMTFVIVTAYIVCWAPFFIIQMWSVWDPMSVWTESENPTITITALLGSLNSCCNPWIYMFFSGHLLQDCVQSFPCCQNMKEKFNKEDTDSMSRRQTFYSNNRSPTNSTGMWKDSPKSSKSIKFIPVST
Chain of Somatostatin sst5 (P35346 whole entry): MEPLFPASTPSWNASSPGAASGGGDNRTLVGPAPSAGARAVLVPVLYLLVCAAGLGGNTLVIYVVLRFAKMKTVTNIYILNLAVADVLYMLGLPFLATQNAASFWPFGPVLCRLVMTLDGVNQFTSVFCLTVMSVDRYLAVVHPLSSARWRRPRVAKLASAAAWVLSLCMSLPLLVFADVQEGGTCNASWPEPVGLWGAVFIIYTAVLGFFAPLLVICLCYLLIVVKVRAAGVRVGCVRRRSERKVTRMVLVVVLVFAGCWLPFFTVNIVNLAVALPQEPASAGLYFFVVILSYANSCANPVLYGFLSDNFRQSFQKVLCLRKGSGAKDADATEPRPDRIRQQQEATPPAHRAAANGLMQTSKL
Chain of Calcitonin gene related peptide CGRP (Q16602 23-461): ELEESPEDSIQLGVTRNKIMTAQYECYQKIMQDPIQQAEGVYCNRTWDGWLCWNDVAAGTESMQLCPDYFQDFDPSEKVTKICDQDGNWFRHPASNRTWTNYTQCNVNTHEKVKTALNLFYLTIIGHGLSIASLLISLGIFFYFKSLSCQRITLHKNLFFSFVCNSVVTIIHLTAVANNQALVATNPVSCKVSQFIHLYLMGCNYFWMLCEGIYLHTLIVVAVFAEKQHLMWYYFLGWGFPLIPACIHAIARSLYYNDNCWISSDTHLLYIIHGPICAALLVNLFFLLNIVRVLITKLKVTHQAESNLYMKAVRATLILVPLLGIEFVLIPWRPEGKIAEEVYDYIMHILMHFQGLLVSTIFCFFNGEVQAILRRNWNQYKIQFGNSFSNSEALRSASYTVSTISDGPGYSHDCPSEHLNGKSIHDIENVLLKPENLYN
Chain of Calcitonin gene related peptide CGRP (O60894 27-148 partner): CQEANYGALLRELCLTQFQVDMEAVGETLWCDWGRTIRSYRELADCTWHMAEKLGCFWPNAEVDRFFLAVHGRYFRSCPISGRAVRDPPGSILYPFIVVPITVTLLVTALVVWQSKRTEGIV
T11 sequence (P22303 32-614): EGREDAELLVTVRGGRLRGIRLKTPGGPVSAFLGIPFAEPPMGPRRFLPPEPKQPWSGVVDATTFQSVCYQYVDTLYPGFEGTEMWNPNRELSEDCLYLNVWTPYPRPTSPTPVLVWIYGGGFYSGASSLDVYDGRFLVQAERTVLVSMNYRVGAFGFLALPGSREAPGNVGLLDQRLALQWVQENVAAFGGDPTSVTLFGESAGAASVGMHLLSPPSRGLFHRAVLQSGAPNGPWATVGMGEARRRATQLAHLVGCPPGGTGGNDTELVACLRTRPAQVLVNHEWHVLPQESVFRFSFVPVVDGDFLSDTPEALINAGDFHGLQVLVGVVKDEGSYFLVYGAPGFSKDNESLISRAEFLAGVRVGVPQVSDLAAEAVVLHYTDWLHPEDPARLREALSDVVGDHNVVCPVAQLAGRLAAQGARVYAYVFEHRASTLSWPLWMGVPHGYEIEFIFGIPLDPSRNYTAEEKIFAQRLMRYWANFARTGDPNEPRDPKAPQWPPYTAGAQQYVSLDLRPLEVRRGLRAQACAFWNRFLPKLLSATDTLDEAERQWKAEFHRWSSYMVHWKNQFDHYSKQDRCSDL
T9 sequence (P28564 whole entry): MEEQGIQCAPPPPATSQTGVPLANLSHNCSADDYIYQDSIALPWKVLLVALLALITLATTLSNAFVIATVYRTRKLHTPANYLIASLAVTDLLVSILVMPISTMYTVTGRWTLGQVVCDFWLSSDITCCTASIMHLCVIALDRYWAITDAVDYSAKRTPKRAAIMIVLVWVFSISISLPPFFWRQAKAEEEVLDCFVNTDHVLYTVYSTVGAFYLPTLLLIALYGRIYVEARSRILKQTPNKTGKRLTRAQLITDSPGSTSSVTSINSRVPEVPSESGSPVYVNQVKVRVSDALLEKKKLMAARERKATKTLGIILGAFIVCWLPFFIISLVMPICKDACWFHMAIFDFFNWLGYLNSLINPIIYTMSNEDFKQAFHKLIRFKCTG
T7 sequence (P35462 whole entry): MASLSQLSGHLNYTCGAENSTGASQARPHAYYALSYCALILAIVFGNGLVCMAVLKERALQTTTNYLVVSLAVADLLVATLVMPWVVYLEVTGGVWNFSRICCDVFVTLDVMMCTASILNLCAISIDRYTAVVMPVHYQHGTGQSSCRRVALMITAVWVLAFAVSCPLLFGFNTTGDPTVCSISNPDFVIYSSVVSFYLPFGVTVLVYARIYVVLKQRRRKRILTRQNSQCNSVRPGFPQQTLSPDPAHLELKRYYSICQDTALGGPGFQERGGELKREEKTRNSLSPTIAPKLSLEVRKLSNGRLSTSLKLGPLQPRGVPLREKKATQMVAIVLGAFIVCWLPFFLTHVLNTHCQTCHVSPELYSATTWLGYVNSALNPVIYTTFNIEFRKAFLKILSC
T5 sequence (P29274 whole entry): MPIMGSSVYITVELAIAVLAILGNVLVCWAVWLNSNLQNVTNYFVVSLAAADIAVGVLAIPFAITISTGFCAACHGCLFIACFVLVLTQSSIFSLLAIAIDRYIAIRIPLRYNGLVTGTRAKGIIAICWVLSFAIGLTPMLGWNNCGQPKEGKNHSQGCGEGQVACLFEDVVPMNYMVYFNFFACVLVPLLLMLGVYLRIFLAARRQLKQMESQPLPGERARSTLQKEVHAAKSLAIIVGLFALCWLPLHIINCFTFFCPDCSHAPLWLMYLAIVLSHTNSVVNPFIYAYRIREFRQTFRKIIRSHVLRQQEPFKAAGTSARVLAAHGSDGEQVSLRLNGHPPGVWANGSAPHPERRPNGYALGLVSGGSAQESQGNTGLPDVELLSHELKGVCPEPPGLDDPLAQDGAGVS
T8 sequence (Q01959 whole entry): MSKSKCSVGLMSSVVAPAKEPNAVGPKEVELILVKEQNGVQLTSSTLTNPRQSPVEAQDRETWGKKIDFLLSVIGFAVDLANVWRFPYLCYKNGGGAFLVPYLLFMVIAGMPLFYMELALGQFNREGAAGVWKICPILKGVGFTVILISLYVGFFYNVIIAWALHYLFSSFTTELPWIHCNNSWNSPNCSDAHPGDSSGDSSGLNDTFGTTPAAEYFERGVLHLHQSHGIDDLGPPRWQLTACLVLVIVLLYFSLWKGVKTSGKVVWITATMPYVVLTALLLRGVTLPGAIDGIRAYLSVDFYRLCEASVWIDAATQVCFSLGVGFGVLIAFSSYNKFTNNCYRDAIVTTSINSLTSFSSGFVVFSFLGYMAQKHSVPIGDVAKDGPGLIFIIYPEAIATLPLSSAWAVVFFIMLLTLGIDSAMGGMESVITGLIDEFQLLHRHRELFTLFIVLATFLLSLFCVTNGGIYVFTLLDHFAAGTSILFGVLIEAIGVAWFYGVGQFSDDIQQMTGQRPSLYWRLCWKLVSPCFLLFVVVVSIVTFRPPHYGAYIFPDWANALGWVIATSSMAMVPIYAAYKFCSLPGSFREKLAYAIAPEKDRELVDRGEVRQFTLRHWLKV

Cc1cc(-c2ncnn2C)c2cccc(OCc3c(Cl)cc(F)cc3[C@H](C)NC(=O)COC(F)F)c2n1 [Compound 3, (S)-N-(1-(3-chloro-5-fluoro-2-((2-methyl-4-(1-methyl-1H-1,2,4-triazol-5-yl)quinolin-8-yloxy)methyl)phenyl)ethyl)-2-(difluoromethoxy)acetamide] was tested, and the Kb [1] was 0.214 nM, the “type of antagonism of BK” value ([1]; BK concentration-effect curves, Emax) was “competitive” and the pA2 ([1]; Schild plot, Pharm/PCS, ± S.E.M. where given) was 9.67 ± 0.42. The Schild plot slope ([1]; Schild regression, Pharm/PCS, ± S.E.M. where given) was −0.76, the “Maximal BK-induced response in absolute force units ± S.E.M.” value (shortened to “Maximal BK-induced response”) ([1]; antagonist 1 nM, vehicle for Compound 3 1.52 ± 0.20) was 1.75 ± 0.32 grams-weight and the “Maximal BK-induced response” value ([1]; antagonist 10 nM, vehicle: Icatibant 1.90, Compound 1 […], Compound 2 2.25, Compound 3 1.52) was 2.29 ± 0.24 grams-weight. The “Maximal BK-induced response” value ([1]; antagonist 100 nM, vehicle: Icatibant 1.90, Compound 1 […], Compound 2 2.25, Compound 3 1.52) was 2.42 ± 0.36 grams-weight, the “Maximal BK-induced response” value ([1]; antagonist 1 μM, vehicle: Icatibant 1.90, Compound 1 […], Compound 2 2.25, Compound 3 1.52) was 1.25 ± 0.14 grams-weight and the “pA2 value converted into nM” value ([1]; potency from pA2) was 0.21 nM. The “effect on U-46619-induced contraction” value (prostanoid TP receptor) was “Lack of antagonist effect; also recorded: no functional antagonism was observed”, the “reversibility of antagonism after washout” value (B2 receptor; 100 nM) was “partial or slow reversibility” and the “reversibility of antagonism after washout” value (B2 receptor; 1 and 10 nM) was “fully reversible”. For the same molecule, the EC50 (B2 receptor; after washout, 5 h, washout after Compound 3 1 nM, 5 h, vehicle washout 20.8 nM) was 22 nM, the EC50 (B2 receptor; after washout, 5 h, washout after Compound 3 10 nM, 5 h, vehicle washout 20.8 nM) was 38.5 nM and the EC50 (B2 receptor; after washout, 5 h, washout after Compound 3 100 nM, 5 h, vehicle washout 11.7 nM) was 84.1 nM. The EC50 (B2 receptor; antagonist present, 3 h, Compound 3 1 nM, vehicle 3 h 18.7 nM) was 67.4 nM, the EC50 (B2 receptor; antagonist present, 3 h, Compound 3 10 nM, vehicle 3 h 18.7 nM) was 225 nM and the EC50 (B2 receptor; antagonist present, 3 h, Compound 3 100 nM, vehicle 3 h 7.5 nM) was 713 nM. For the same molecule, the “antagonist concentration that significantly reduced the c-Fos response to BK” value (human myc-B2 receptor; 60 min) was “significant effect at equimolar concentration”, the “effect on BK-induced c-Fos accumulation” value (human myc-B2 receptor; co-treatment between 10 nM and 1 μM) was “inhibited this response in a concentration-dependent manner” and the inhibition at 10 µM (Adenosine A2A) was 9.8%. For the same molecule, the inhibition at 10 µM [2] was -26.1%, the “% Inhibition @ 10 µM” value [3] was 74% and the inhibition at 10 µM [3] was 73.5%. For the same molecule, the inhibition at 10 µM (Dopamine D3) was 4.8%, the inhibition at 10 µM (Dopamine transporter) was 2.2% and the “% Inhibition @ 10 µM” value (Potassium channel KATP) was 2.3%. The “% Inhibition @ 10 µM” value [4] was 2.3%, the inhibition at 10 µM (Serotonin 5-HT1B) was -2.5% and the inhibition at 10 µM (Somatostatin sst5) was 2%. For the same molecule, the “% Inhibition @ 10 µM” value (Vasopressin V1a) was 84%, the inhibition at 10 µM (Vasopressin V1a) was 84.1% and the inhibition at 10 µM (Acetylcholinesterase) was 8.4%. The “% Inhibition @ 10 µM” value [5] was 12%.
